Conditions: for surface tension liquid-gas: Ring tensiometer; for mass density / viscosity: 101.33 kPa, Liquid; for viscosity: Concentric cylinders viscometry

CN(CCO)CCO [N-methyldiethanolamine]
Conditions	mass density [kg/m3]	surface tension liquid-gas [mN/m]	viscosity [mPa·s]
303.15 K	1033.8	37.33	56.3
313.15 K	1026.7	–	34.45
323.15 K	1018.9	–	22.93
333.15 K	–	35.47	14.99

From the NIST ThermoML archive (doi:10.1021/je400562z)
